# Experimental data from US9492508B2, “Parathyroid hormone analogs and uses thereof” (The General Hospital Corporation, priority 2010, dated 2016).
# Square brackets hold non-standard residues; d marks the D form. Peptide text beside a SMILES is read from it. hArg = N=C(N)NCCCC[C@H](N)C(=O)O; Aib = CC(C)(N)C(=O)O
# Legend:
# MC3T3-E1 cells [1] = experiment: cAMP RIA in intact MC3T3-E1 cells; type: cell-based, mouse; conditions: 30 min, room temperature, IBMX
# Experimental: cAMP stimulating activity of these polypeptides was also assessed, using two different methods: a radioimmunoassay (RIA; FIG. 2) and a cAMP responsive element fused to a luciferase gene (FIG. 3). Briefly, the RIA cAMP assays were performed in intact MC3T3-E1 cells, a mouse pre-osteoblastic cell line, in 96-well plates, as described by Okazaki et al. (Proc Natl Acad Sci USA 105:16525-30, 2008). […] The cAMP contents of the HCl lysates were then determined by RIA. Data are means of six experiments, each performed in duplicate. Curves were fit to the data using Graph-Pad Prism 4.0.
# human PTHR1 (RG) = target: T1, human PTHR1 (RG) (Homo sapiens, UniProt Q03431); experiment: Competition binding, RG conformation of human PTHR1 (COS-7 membranes); conditions: mean of 3 experiments, read-out: Binding human PTHR1 IC50 (Log M) RG (converted)
# T1 construct: expressed in transfected cells; host or cells: COS-7 cells (membranes)
# T1 sequence (Q03431 27-593): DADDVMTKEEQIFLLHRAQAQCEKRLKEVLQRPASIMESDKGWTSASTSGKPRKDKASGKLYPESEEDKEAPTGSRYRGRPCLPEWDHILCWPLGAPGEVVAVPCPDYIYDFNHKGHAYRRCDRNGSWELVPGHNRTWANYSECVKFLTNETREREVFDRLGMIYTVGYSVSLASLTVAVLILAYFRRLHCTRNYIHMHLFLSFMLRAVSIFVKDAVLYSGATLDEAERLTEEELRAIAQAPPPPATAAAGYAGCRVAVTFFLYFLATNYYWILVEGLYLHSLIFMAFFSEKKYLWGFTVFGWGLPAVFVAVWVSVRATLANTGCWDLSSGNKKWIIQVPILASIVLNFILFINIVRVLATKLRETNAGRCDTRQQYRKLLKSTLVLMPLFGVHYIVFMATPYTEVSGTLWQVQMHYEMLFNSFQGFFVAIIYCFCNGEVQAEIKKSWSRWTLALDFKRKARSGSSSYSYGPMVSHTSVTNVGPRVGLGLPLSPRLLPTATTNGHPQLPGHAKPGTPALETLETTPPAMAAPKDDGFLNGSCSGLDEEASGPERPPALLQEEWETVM
# Experimental: (§1) Briefly, the R^0 form of the receptor can be favored by addition of the non-hydrolyzable nucleotide analog GTPγS. The RG form can be favored, for example, by co-transfection of cells with a negative dominant Gαs subunit. […] Data are means of four experiments, each performed in duplicate. Curves were fit to the data using Graph-Pad Prism 4.0.
# (§2) Here, competition binding assays for the R^0 and RG PTHR1 conformation were performed in membranes prepared from transfected COS-7 cells, as described by Dean et al., Mol Endocrinol 22:156-66, 2008. Data are means of three experiments, each performed in duplicate. Curves were fit to the data using Graph-Pad Prism 4.0.
# rat PTHR1 (R0) = target: T2, rat PTHR1 (R0) (Rattus norvegicus, UniProt P25961); experiment: Competition binding, R0 conformation of rat PTHR1; conditions: R0 conformation; read-out: Binding rat PTHR1 IC50 nM R0
# T2 sequence (P25961 27-591): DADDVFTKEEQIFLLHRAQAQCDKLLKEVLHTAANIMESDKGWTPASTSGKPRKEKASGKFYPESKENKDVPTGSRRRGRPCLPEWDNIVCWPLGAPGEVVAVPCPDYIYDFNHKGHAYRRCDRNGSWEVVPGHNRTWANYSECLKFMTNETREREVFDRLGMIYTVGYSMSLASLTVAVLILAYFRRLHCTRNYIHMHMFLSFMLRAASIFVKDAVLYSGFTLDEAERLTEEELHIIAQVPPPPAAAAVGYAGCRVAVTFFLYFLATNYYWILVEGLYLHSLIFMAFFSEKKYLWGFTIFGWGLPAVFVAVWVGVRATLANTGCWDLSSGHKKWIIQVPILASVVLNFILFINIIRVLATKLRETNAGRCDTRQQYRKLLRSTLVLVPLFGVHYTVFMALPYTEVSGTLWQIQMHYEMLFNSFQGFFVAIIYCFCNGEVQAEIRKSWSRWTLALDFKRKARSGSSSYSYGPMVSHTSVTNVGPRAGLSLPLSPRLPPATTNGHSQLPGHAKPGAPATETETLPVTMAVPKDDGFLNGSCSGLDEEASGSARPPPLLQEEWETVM
# From the text: as §1
# rat PTHR1 (RG) = target: T3, rat PTHR1 (RG) (Rattus norvegicus, UniProt P25961); experiment: Competition binding, RG conformation of rat PTHR1; conditions: FIG. 1B
# T3 construct: expressed in transfected cells
# T3 sequence (P25961 27-591): T2 sequence (P25961 27-591)
# From the text: as §1
# [2] = Blood Ca++ responses in mice; type: in vivo, mice (C57 BL/6); conditions: 5 nmol/kg s.c., 4, 6, 8 and 24 hours
# Experimental: Blood Ca^++ responses in mice were also assayed. Mice (C57 BL/6) were injected subcutaneously with either vehicle or the indicated ligand to give a final dose of 5 nmol/kg body weight, and blood was withdrawn via the tail at times after injection and assessed for Ca^++ concentration using a Bayer Rapid Lab model 348 blood analyzer. […] A similar experiment using 10 nmol/kg by intravenous injection was also conducted with similar results (FIGS. 8C and 8D).
# human PTHR1 (R0) = target: T4, human PTHR1 (R0) (Homo sapiens, UniProt Q03431); experiment: Competition binding, R0 conformation of human PTHR1 (COS-7 membranes, 125I-PTH(1-34) tracer, GTPγS); conditions: FIG. 5A
# T4 construct: expressed in transfected cells; host or cells: COS-7 cells (membranes)
# T4 sequence (Q03431 27-593): T1 sequence (Q03431 27-593)
# Experimental: as §1, §2
# [3] = Solubility, in vitro precipitation assay (PBS pH 7.4 vs 10 mM acetic acid); type: physicochemical; conditions: pH 7.4
# Experimental: The relative solubilities of SP-PTH-AAK (SEQ ID NO:4) and SP-PTH (SEQ ID NO:11) in different buffers were assessed in an in vitro precipitation assay. For each polypeptide, two vials, each containing 50 μg of lyophilized polypeptide powder, were prepared; one vial was reconstituted in 50 μl of PBS at pH 7.4; the other vial was reconstituted in 50 μl of 10 mM acetic acid (pH 2.9) to give final concentrations of 1.0 mg/ml […]. After one hour at room temperature, the vials were centrifuged at 15,000×g for 2 minutes. The supernatant was removed and the protein content assayed using the Pierce BCA assay (Thermo Fischer Scientific, Rockford, Ill.). For each polypeptide, the content of the PBS sample was expressed as percent of the content of the corresponding acetic acid sample.
# MC3T3-E1 cells [4] = experiment: cAMP response following ligand wash-out in MC3T3-E1 cells; type: cell-based, mouse; conditions: 100 nM ligand 5 min, then wash-out; FIGS. 7A, 7B
# Experimental: Cells were treated at room temperature with vehicle or the indicated ligand (100 nM) for five minutes; for each ligand duplicate wells were used to obtain the initial (maximum cAMP values); in these wells, cells were co-incubated with ligand and IBMX. After five minutes of initial treatment, the buffer was removed, and, for the initial wells, the reactions were terminated by addition of 50 mM HCl. In the other wells, the cells were rinsed three times with buffer, and incubated in buffer for varying times, as indicated on the abscissa; after which the buffer was replaced by a buffer containing IBMX, and the cells were incubated for another five minutes. After that, the buffer was removed and the reactions were terminated by addition of 50 mM HCl. The cAMP contents of the HCl lysates were then determined by RIA.
smiles,measurement,setting,value
"CC[C@H](C)[C@H](NC(=O)[C@H](CCC(=O)O)NC(=O)[C@H](C)NC(=O)[C@@H](NC(=O)[C@H](Cc1c[nH]cn1)NC(=O)[C@@H](NC(=O)[C@H](CCC(=O)O)NC(=O)[C@H](C)NC(=O)[C@@H](NC(=O)[C@H](CC(C)C)NC(=O)[C@H](CCCCN)NC(=O)[C@H](Cc1c[nH]cn1)NC(=O)[C@H](CC(C)C)NC(=O)[C@H](Cc1ccccc1)NC(=O)[C@H](C)NC(=O)[C@H](CCCNC(=N)N)NC(=O)[C@H](CCCNC(=N)N)NC(=O)[C@H](CCCNC(=N)N)NC(=O)[C@H](C)NC(=O)[C@H](CC(=O)O)NC(=O)[C@H](CCC(N)=O)NC(=O)[C@@H](NC(=O)[C@H](Cc1c[nH]c2ccccc12)NC(=O)[C@H](CCCCN)NC(=O)[C@H](C)NC(=O)[C@H](CCCCNC(=N)N)NC(=O)[C@H](CCC(N)=O)NC(=O)[C@H](Cc1c[nH]cn1)NC(=O)[C@H](CCSC)NC(=O)[C@H](CC(C)C)NC(=O)[C@H](CCC(N)=O)NC(=O)[C@@H](NC(=O)[C@H](CCC(=O)O)NC(=O)C(C)(C)NC(=O)[C@@H](NC(=O)[C@H](C)N)C(C)C)[C@@H](C)CC)[C@@H](C)CC)[C@@H](C)CC)[C@@H](C)CC)[C@@H](C)O)C(N)=O [AIB-SP-PTH-AAK, [Ala^1,12,18,22,Aib^3,Gln^10,Har^11,Trp^14,Lys^26]PTH(1-14)/PTHrP(15-36)] (H-AV[Aib]EIQLMHQ[hArg]AKWIQDARRRAFLHKLIAEIHTAEI-NH2; N-terminus assumed)",EC50,MC3T3-E1 cells [1],0.018 nM
same,cAMP MC3T3-E1 cells Emax (pmole/well),MC3T3-E1 cells [1],57.9 ± 13.9 pmole/well
same,cAMP MC3T3-E1 cells EC50 (Log M),MC3T3-E1 cells [1]; 6 experiments,−10.7 ± 0.1 Log M
same,IC50,human PTHR1 (RG),0.372 nM
same,IC50,rat PTHR1 (R0),0.7 nM
same,"binding to RG form of rat PTHR1, comparison in words",rat PTHR1 (RG),increased
same,blood calcium levels at later time points vs PTH(1-34) or vehicle,[2],increased
same,R0 binding at human PTH receptor as compared to PTH(1-34),human PTHR1 (R0),enhanced R^0 binding
same,"solubility in PBS pH 7.4 (percent of acetic acid sample), in words",[3],solubility similar to hPTH(1-34)NH2
same,cAMP-stimulating activity after ligand wash-out,MC3T3-E1 cells [4],maintained cAMP-stimulating activity for longer periods of time than PTH(1-34)
